Data published in US20110014164A1, “EFFICIENT INDUCTION OF PLURIPOTENT STEM CELLS USING SMALL MOLECULE COMPOUNDS” (PRESIDENT AND FELLOWS OF HARVARD COLLEGE, priority 2008, published 2011).

Columns and labels:
uninfected MEFs [1] = assay: Oct4-GFP induction in uninfected MEFs; type: cell-based, mouse; conditions: VPA treatment alone on uninfected MEFs
Source text: (§1) Therefore, VPA partially reprograms MEFs towards more ES cell-like.

[2] = system: MEFs infected with the four factors (Oct4, Sox2, Klf4 and c-Myc); assay: GFP positive iPS colony number in 4-factor infected MEFs; type: cell-based, mouse
Description: FIG. 1(c) Representative pictures at 11 days post-infection showing a significant increase of GFP positive iPS colonies in infected MEFs with VPA treatment compared to non-treated control.
Consistent with the FACS data, GFP positive iPS colonies emerge sooner and in greater numbers with VPA treatment. […] GFP positive colonies only start to emerge after 10 days post-infection in untreated cells.
For the generation of mouse iPS cells, infected MEFs were cultured in mouse ES cell media until iPS colonies were ready to be picked. In some experiments, knockout serum replacement was used instead of the Hyclone FBS in the mouse ES cell media, which appeared to accelerate the reprogramming process, consistent with a recent report^26. Chemical treatment started 1 or 2 days post-infection and lasted for a week in general. iPS colonies were picked between 9-21 days post-infection based on GFP expression and colony morphology. The picked colonies were then expanded and maintained on irradiated MEF feeder layers in mouse ES cell media.

[3] = system: primary human fibroblasts, BJ and NHDF, infected by Oct4, Sox2 and Klf4; assay: iPS colony induction in 3-factor (Oct4, Sox2, Klf4) infected human fibroblasts; type: cell-based
Source text: AP^+ colonies were compared for 3-factor (Oct4, Sox2 and Klf4) infected BJ fibroblasts with or without VPA treatment at 25 days post-infection.
In the published reprogramming protocol, infected human fibroblasts are typically cultured in fibroblast media first, then reseeded on feeders and switched to hES cell media about a week post-infection. In the modified protocol, human fibroblasts were replated immediately after infection, treated with VPA in hES media, and subsequently cultured in hES media.
The efficiency of iPS colony induction by 3 factors (Oct4, Sox2 and Klf4) and 2 factors (Oct4 and Sox2) with VPA treatment are plotted. Each dot represents one experiment; each bar represents the average for each condition.
Human fibroblasts were first infected by Moloney murine leukemia retroviruses expressing the Oct4, Sox2 and Klf4 genes, and treated with VPA for 1 to 2 weeks.
Human fibroblasts were infected by different transcription factor combinations, and replated in fibroblast medium typically at 2×10^5 cells per well in gelatin-coated 6-well plates at 0 day post-infection. Cells were cultured in hES cell media starting from 1 day post-infection.

[4] = system: MEFs infected with the four factors (Oct4, Sox2, Klf4 and c-Myc); type: cell-based, mouse; conditions: 2 mM; 4-factor infected MEFs
Description: FIG. 1(a) MEFs infected with the four factors (Oct4, Sox2, Klf4 and c-Myc) were treated with various chemicals for a week, the percentage of Oct4-GFP positive cells induced was measured through FACS analysis, and compared to infected MEFs without treatment or treated with DMSO (the solvent for Dexamethasone, SAHA and TSA). The chemicals used were: 5′-azaC (2 μM), dexamethasone (dex, 1 μM), 5′-azaC (2 μM) together with dexamethasone (1 μM), VPA (2 mM), SAHA (5 μM) and TSA (20 nM). n=4 for each treatment. For all figures in this study, standard deviations are indicated by error bars, and P values by two-tailed student t-test less than 0.05, 0.01 and 0.001 are indicated by one, two and three asterisks respectively.
To quantitate reprogramming efficiency, we established an assay based on Fluorescence-Activated Cell Sorting (FACS) analysis using an Oct4-GFP transgenic reporter, where the expression of the green fluorescent protein (GFP) is controlled by the promoter and enhancers of Oct4, a pluripotent marker gene^14.
MEFs were derived from e13.5 embryos hemizygous for the Oct4-GFP transgenic allele. Embryos were sexed by inspecting gonads for the pattern of Oct4-GFP expression. Gonads and internal organs were removed before processing the embryos for MEF isolation. To generate iPS cells that can be identified in mouse chimeras after blastocyst injection, we derived MEFs from e13.5 embryos that are hemizygous for Oct4-GFP and heterozygous for the Rosa26-lacZ reporter allele. MEFs were grown in DMEM supplemented with 10% FBS, L-glutamine, penicillin/streptoMycin, nonessential amino acids, and sodium pyruvate. MEFs in early passages (up to passage 5) were used for generation of iPS cells.
Moloney-based retroviral vector (pMXs) containing the murine complementary DNAs of Oct4, Sox2, c-Myc, and Klf4 were obtained from Addgene^1. These plasmids were co-transfected into 293T cells with packaging vectors (pUMVC and pCMV-VSVG), and viral supernatants were collected 48 hours post-transfection to infect MEFs. Two to three rounds of infection were performed during a 48 hour period. The first day after viral supernatants were removed was defined as 0 day post-infection. Infected MEFs were subsequently cultured in mouse ES cell media (Knockout DMEM supplemented with 15% Hyclone FBS, L-glutamine, penicillin/streptoMycin, nonessential amino acids, β-mercaptoethanol, and with 1000 U/ml LIF), and treated with small molecules or growth factors for a week starting from 1 or 2 days post-infection. […] All conditions were tested in quadruplicates.

uninfected MEFs [5] = assay: Microarray analysis on uninfected MEFs treated with VPA; type: cell-based, mouse
Source text: (a) Genes that were specifically expressed in ES cells and MEFs (>10 fold difference) were selected, and scatter plot was generated to visualize the effect of VPA treatment on the expression of these genes. Each blue dots represent one gene, and the position of the blue dot indicate the relative expression level, the average signal (AVE_signal), in MEFs treated with VPA versus untreated. The thick red line indicates identical expression levels. The two adjacent red lines indicate positions where VPA treatment causes a two fold up or down-regulation of the gene expression.
(b) Examples of the relative levels of expression of ES cell-specific transcripts (Rex3 and Zfp7) in ES cells, iPS-m cells, untreated MEFs and MEFs treated with VPA.
(c) Examples of the relative levels of expression of MEF-specific transcripts (Aspn and Meox2) in ES cells, iPS-m cells, untreated MEFs and MEFs treated with VPA.
as §1
For transcriptional analysis, total RNA was isolated from cells cultured in 6 well dishes using RNeasy Mini Kit and QlAshredder from Qiagen. Biotinylated antisense RNA were amplified using Illumina Total Prep RNA amplification Kit from Ambion, hybridized to Illumina Whole-Genome Expression BeadChips (MouseRef-8) and analyzed by Illumina Beadstation 500. All samples were prepared in two to three biological repeats. Data were analyzed using the Beadstudio software provided by Illumina.

[6] = uninfected MEFs, 2 mM VPA for a week

## CCCC(CCC)C(=O)O [VPA, valproic acid]
Uninfected MEFs [1]
  induction of Oct4-GFP positive cells: does not induce Oct4-GFP positive cells
[2]; 8 days post-infection, out of 270,000 cells seeded, no colonies without chemical treatment
  average number of GFP positive colonies: 241 colonies
[2]; two weeks post-infection
  difference in colony number, treated versus non-treated: more than 40 fold
[3]; human skin cells infected with the three factors
  promotion of the efficiency of iPS colony formation: ~30 fold
[3]; optimized induction protocol together with VPA treatment
  improvement over the first report on reprogramming by the same 3-factor combination (<0.001%): 1000 fold
[4]
  improvement over the non-treated control: more than 100 fold
Uninfected MEFs [5]; MEFs treated with VPA versus untreated MEFs
  expression of ES cell-specific genes Rex3 and Zfp7: up-regulated by more than twenty fold
Uninfected MEFs [5]; VPA treated MEFs versus untreated MEFs
  expression of MEF-specific genes Aspn and Meox2: down-regulated by more than twenty fold
Uninfected MEFs [5]; [6]
  effect on endogenous c-Myc gene expression: did not have a significant effect
  share of the 214 genes down-regulated >10 fold in ES cells that are down-regulated by more than two fold: 55%
  share of the 214 genes down-regulated >10 fold in ES cells that are up-regulated by more than two fold: 6.2%
  share of the 968 genes up-regulated >ten fold in ES cells that are down-regulated by more than two fold: 4.5%
  share of the 968 genes up-regulated >ten fold in ES cells that are up-regulated by more than two fold: 66%
